Results reported in US20250230147A1, “LACTAMS AS CBL-B INHIBITORS” (Genentech, Inc., priority 2021, published 2025).
Where a name gives a salt, the structure may show the parent alone.

Legend:
[1] = target: Cbl-b (Homo sapiens (Human), UniProt Q13191); assay: Cbl-b LCK Ub TR-FRET assay (Cbl-b Lck HTRF); format: biochemical
Method in brief: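 Biotin-Cbl-b preincubated with compound (10-point 3-fold series) 60 min, then His-LCK with 1 mM ATP (2× mixture) added for 90 min at room temperature. Ubiquitination detected by TR-FRET using HA-ubiquitin/UBE2D2 adduct, anti-HA-D2 and streptavidin-Eu; IC50 normalised to no-LCK and DMSO controls.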

[2] = target: c-Cbl (Homo sapiens (Human), UniProt P22681); assay: C-Cbl LCK Ub TR-FRET assay (c-cbl Lck HTRF); format: biochemical; conditions: for (fold-selectivity): C-cbl Lck HTRF IC50 relative to Cbl-b Lck HTRF IC50
Sequence of c-Cbl (P22681 47-435): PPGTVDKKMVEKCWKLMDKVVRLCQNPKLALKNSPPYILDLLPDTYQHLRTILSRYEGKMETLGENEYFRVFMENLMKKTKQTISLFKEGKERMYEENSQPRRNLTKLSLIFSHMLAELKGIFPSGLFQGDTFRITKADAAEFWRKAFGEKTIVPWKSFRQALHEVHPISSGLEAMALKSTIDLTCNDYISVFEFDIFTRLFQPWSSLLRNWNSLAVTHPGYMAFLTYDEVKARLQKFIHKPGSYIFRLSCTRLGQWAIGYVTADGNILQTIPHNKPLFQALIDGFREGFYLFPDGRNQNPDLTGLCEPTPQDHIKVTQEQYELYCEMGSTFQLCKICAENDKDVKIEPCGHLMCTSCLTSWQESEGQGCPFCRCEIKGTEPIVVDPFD
Method in brief: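 After the ubiquitination reaction, detection mixture was added and plates incubated 20 min at room temperature before reading. IC50 values were calculated with wells lacking LCK as the low control and DMSO as the high control.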

Sequence of Cbl-b (Q13191 40-426): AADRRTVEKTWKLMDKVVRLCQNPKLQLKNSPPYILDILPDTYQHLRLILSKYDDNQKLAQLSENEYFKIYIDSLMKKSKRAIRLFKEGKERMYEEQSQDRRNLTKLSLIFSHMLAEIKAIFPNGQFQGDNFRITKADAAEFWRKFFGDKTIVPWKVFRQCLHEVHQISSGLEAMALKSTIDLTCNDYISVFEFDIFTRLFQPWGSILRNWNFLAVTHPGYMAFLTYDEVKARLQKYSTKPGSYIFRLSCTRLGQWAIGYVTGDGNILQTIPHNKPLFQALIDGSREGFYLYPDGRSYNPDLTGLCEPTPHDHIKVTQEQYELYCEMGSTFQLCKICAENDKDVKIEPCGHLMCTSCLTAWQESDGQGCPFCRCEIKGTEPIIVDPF

Structure (SMILES) | IC50 [1] [nM] | IC50 [2] [nM] | (fold-selectivity) [2] | fold of selectivity ([1]; Cbl-b over c-Cbl, Lck HTRF IC50) [x]
Cn1cnnc1[C@H](F)C1(c2cccc(N3Cc4c(cc(CN5CC[C@H](F)C5)cc4C(F)(F)F)C3=O)c2)COC1 [Compound 82, 2-(3-(3-((R)-fluoro(4-methyl-4H-1,2,4-triazol-3-yl)methyl)oxetan-3-yl)phenyl)-6-(((S)-3-fluoropyrrolidin-1-yl)methyl)-4-(trifluoromethyl)isoindolin-1-one] | 28 | 68 | 2.4x | –
COC[C@H]1CCCN1Cc1cc2c(c(C(F)(F)F)c1)CN(c1cccc(C3([C@H](F)c4nncn4C)COC3)c1)C2=O [Compound 156, 2-(3-(3-((S)-fluoro(4-methyl-4H-1,2,4-triazol-3-yl)methyl)oxetan-3-yl)phenyl)-6-(((R)-2-(methoxymethyl)pyrrolidin-1-yl)methyl)-4-(trifluoromethyl)isoindolin-1-one] | 920 | 5200 | 5.6x | 5.6
CCCCc1cc(C2(Cc3nncn3C)CCC2)cc(N2Cc3c(cc(CNC4(C)CCC4)cc3C(F)(F)F)C2=O)n1 [Compound 346, 2-(6-butyl-4-(1-((4-methyl-4H-1,2,4-triazol-3-yl)methyl)cyclobutyl)pyridin-2-yl)-6-(((1-methylcyclobutyl)amino)methyl)-4-(trifluoromethyl)isoindolin-1-one] | 11 | 10 | (0.92x) | –
CCNc1cc(C2(Cc3nncn3C)COC2)cc(N2Cc3c(cc(CNC4(C)CCC4)cc3C(F)(F)F)C2=O)n1 [Compound 290, 2-(6-(ethylamino)-4-(3-((4-methyl-4H-1,2,4-triazol-3-yl)methyl)oxetan-3-yl)pyridin-2-yl)-6-(((1-methylcyclobutyl)amino)methyl)-4-(trifluoromethyl)isoindolin-1-one] | 10 | 5.4 | (0.54x) | –
Cn1cnnc1CC1(c2cccc(N3Cc4c(cc(C5CNC5)cc4C(F)(F)F)C3=O)c2)COC1 [Compound 12, 6-(azetidin-3-yl)-2-(3-(3-((4-methyl-4H-1,2,4-triazol-3-yl)methyl)oxetan-3-yl)phenyl)-4-(trifluoromethyl)isoindolin-1-one] | 220 | 210 | 0.94x | –
CC(C)[C@H]1CN(C)CCN1Cc1cc2c(c(C(F)(F)F)c1)CN(c1cccc(C3([C@H](F)c4nncn4-c4ccccc4)COC3)c1)C2=O [Compound 260, 2-(3-(3-((S)-fluoro(4-phenyl-4H-1,2,4-triazol-3-yl)methyl)oxetan-3-yl)phenyl)-6-(((S)-2-isopropyl-4-methylpiperazin-1-yl)methyl)-4-(trifluoromethyl)isoindolin-1-one] | 5600 | 8300 | (1.5x) | –
Cn1cnnc1CC1(c2cccc(N3Cc4c(cc(CN5CC(C)(F)C5)cc4C(F)(F)F)C3=O)c2)CC(F)(F)C1 [Compound 107, 2-(3-(3,3-difluoro-1-((4-methyl-4H-1,2,4-triazol-3-yl)methyl)cyclobutyl)phenyl)-6-((3-fluoro-3-methylazetidin-1-yl)methyl)-4-(trifluoromethyl)isoindolin-1-one] | 18 | 19 | 1.0x | –
Cn1cnnc1[C@H](F)C1(c2cccc(N3Cc4c(cc(CN5CC(C)(O)C5)cc4C(F)(F)F)C3=O)c2)CC1 (single isomer, unassigned) [Compound 30] | 65 | 91 | 1.4x | –
CCCNCc1cc2c(c(C(F)(F)F)c1)CN(c1cccc(C3([C@H](F)c4nncn4C)CC(F)(F)C3)c1)C2=O [Compound 446, (S)-2-(3-(3,3-difluoro-1-(fluoro(4-methyl-4H-1,2,4-triazol-3-yl)methyl)cyclobutyl)phenyl)-6-((propylamino)methyl)-4-(trifluoromethyl)isoindolin-1-one] | 26 | 29 | (1.3x) | –
Cn1cnnc1[C@H](F)C1(c2cccc(N3Cc4c(cc([C@H](N)C5CC5)cc4C(F)(F)F)C3=O)c2)COC1 [Compound 54, 6-((R)-amino(cyclopropyl)methyl)-2-(3-(3-((R)-fluoro(4-methyl-4H-1,2,4-triazol-3-yl)methyl)oxetan-3-yl)phenyl)-4-(trifluoromethyl)isoindolin-1-one] | 29 | 46 | 1.6x | –
CCn1cnnc1[C@H](F)C1(c2cccc(N3Cc4c(cccc4C(F)(F)F)C3=O)c2)COC1 [Compound 272, (R)-2-(3-(3-((4-ethyl-4H-1,2,4-triazol-3-yl)fluoromethyl)oxetan-3-yl)phenyl)-4-(trifluoromethyl)isoindolin-1-one] | 8200 | 11000 | (1.3x) | –
Cn1cnnc1[C@@H](F)C1(c2cccc(N3Cc4c(cc(CN5CC(C)(C)C5)cc4C(F)(F)F)C3=O)c2)COC1 [Compound 73, (S)-6-((3,3-dimethylazetidin-1-yl)methyl)-2-(3-(3-(fluoro(4-methyl-4H-1,2,4-triazol-3-yl)methyl)oxetan-3-yl)phenyl)-4-(trifluoromethyl)isoindolin-1-one] | 140 | 300 | 2.2x | –
CC(C)[C@H]1CN(Cc2cc3c(c(C(F)(F)F)c2)CN(c2cccc(C4(Cc5nncn5C)CC(F)(F)C4)c2)C3=O)CCN1 [Compound 429, (S)-2-(3-(3,3-difluoro-1-((4-methyl-4H-1,2,4-triazol-3-yl)methyl)cyclobutyl)phenyl)-6-((3-isopropylpiperazin-1-yl)methyl)-4-(trifluoromethyl)isoindolin-1-one] | 26 | 20 | (0.76x) | –
CC[C@H]1CCC[C@@H](c2cc3c(c(C(F)(F)F)c2)CN(c2cccc(C4(Cc5nncn5C)CC(F)(F)C4)c2)C3=O)N1 (single isomer, unassigned) [Compound 273] | 51 | 77 | (1.5x) | –
Cn1cnnc1[C@H](F)C1(c2cccc(N3Cc4c(cc(CNC5(C)CCC5)cc4C(F)(F)F)C3=O)c2)COC1 [Compound 494, (R)-2-(3-(3-(fluoro(4-methyl-4H-1,2,4-triazol-3-yl)methyl)oxetan-3-yl)phenyl)-6-(((1-methylcyclobutyl)amino)methyl)-4-(trifluoromethyl)isoindolin-1-one] | 13 | 12 | (0.94x) | –
Cn1cnnc1CC1(c2cc(C3CC3)nc(N3Cc4c(cc(CNC5(C)CCC5)cc4C(F)(F)F)C3=O)c2)COC1 [Compound 300, 2-(6-cyclopropyl-4-(3-((4-methyl-4H-1,2,4-triazol-3-yl)methyl)oxetan-3-yl)pyridin-2-yl)-6-(((1-methylcyclobutyl)amino)methyl)-4-(trifluoromethyl)isoindolin-1-one] | 5.6 | 4.7 | (0.83x) | –
Cn1cnnc1[C@H](F)C1(c2cccc(N3Cc4c(cc(CN5CC6(CC6)C5)cc4C(F)(F)F)C3=O)c2)COC1 [Compound 78, (R)-6-((5-azaspiro[2.3]hexan-5-yl)methyl)-2-(3-(3-(fluoro(4-methyl-4H-1,2,4-triazol-3-yl)methyl)oxetan-3-yl)phenyl)-4-(trifluoromethyl)isoindolin-1-one] | 53 | 79 | 1.5x | –
CC(C)NCc1cc2c(c(C(F)(F)F)c1)CN(c1cccc(C3([C@@H](F)c4nncn4C)COC3)c1)C2=O [Compound 226, (R)-2-(3-(3-(fluoro(4-methyl-4H-1,2,4-triazol-3-yl)methyl)oxetan-3-yl)phenyl)-6-((isopropylamino)methyl)-4-(trifluoromethyl)isoindolin-1-one formate] | 29 | 33 | – | –
C[C@H](NC1(C)CCC1)c1cc2c(c(C(F)(F)F)c1)CN(c1cccc(C3([C@@H](F)c4nncn4C)COC3)c1)C2=O [Compound 248, 2-(3-(3-((R)-fluoro(4-methyl-4H-1,2,4-triazol-3-yl)methyl)oxetan-3-yl)phenyl)-6-((S)-1-((1-methylcyclobutyl)amino)ethyl)-4-(trifluoromethyl)isoindolin-1-one] | 6.7 | 5.2 | (0.79x) | –
CC[C@@H](C)Nc1cc(C2(Cc3nncn3C)COC2)cc(N2Cc3c(cccc3C(F)(F)F)C2=O)n1 [Compound 482, (R)-2-(6-(sec-butylamino)-4-(3-((4-methyl-4H-1,2,4-triazol-3-yl)methyl)oxetan-3-yl)pyridin-2-yl)-4-(trifluoromethyl)isoindolin-1-one] | 210 | 410 | (1.9x) | –
Cn1cnnc1CC1(c2cccc(N3Cc4c(cc(CNC5(C)CCC5)cc4C(F)(F)F)C3=O)c2)CC(F)(F)C1 [Compound 232, 2-(3-(3,3-difluoro-1-((4-methyl-4H-1,2,4-triazol-3-yl)methyl)-cyclobutyl)phenyl)-6-(((1-methylcyclobutyl)amino)methyl)-4-(trifluoromethyl)isoindolin-1-one] | 11 | 8 | (0.80x) | –
CC(C)N(C)Cc1cc2c(c(C(F)(F)F)c1)CN(c1cccc(C3([C@H](F)c4nncn4C)CC(F)(F)C3)c1)C2=O [Compound 420, (S)-2-(3-(3,3-difluoro-1-(fluoro(4-methyl-4H-1,2,4-triazol-3-yl)methyl)cyclobutyl)phenyl)-6-((isopropyl(methyl)amino)methyl)-4-(trifluoromethyl)isoindolin-1-one] | 240 | 220 | (0.91x) | –
